Results published in patent US20240228459A1 (Boundless Bio, Inc., priority 2022, published 2024).
pIC50: −log10 of the molar value.

Assays:
Wee1 = Wee1 (Homo sapiens, UniProt P30291); assay: Wee1 pCDK1 activity (known assay); format: cell-based
Description: (§1) The Wee1 pCDK1 and PLK1 activities were determined using known assays.

PLK1 = PLK1 (Homo sapiens, UniProt P53350); assay: PLK1 activity (known assay); format: biochemical
Description: as §1

Chain of Wee1 (P30291 whole entry, species assumed): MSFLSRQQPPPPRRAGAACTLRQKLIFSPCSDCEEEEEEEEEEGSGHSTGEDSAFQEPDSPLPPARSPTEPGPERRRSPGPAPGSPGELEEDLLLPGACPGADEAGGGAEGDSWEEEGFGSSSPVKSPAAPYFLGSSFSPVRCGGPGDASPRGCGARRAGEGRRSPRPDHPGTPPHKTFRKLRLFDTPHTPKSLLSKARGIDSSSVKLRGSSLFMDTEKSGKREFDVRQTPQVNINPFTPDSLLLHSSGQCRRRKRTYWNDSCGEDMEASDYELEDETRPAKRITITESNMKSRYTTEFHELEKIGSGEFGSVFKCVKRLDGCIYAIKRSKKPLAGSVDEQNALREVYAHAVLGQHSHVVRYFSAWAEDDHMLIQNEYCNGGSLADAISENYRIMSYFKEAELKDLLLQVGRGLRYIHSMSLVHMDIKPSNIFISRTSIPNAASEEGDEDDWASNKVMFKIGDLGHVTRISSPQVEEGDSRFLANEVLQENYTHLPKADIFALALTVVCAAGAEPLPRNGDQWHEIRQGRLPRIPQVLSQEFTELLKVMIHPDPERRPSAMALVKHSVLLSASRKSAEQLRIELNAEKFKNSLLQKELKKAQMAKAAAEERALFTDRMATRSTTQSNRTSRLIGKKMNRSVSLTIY
Chain of PLK1 (P53350 whole entry, species assumed): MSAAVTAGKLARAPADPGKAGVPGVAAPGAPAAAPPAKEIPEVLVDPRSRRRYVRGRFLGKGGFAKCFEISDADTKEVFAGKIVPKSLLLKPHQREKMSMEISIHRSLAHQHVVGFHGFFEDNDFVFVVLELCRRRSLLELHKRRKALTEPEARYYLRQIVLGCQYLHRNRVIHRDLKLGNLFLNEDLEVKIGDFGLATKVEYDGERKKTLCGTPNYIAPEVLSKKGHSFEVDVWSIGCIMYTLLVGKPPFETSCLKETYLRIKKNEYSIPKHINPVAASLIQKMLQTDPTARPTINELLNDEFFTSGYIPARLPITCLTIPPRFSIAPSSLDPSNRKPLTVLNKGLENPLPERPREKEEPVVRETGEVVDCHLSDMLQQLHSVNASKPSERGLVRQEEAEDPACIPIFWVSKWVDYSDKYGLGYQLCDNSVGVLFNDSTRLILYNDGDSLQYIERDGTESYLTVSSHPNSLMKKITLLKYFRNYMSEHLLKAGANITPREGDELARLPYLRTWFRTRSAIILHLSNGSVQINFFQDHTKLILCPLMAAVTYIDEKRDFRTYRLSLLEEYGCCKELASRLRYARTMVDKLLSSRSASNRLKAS

| Compound | pIC50 (Wee1) | pIC50 (PLK1) |
| --- | --- | --- |
| C[C@@H]1CN(C)CCN1c1ccc(Nc2ncc(C#N)c(Nc3cccc(N4CCOC4=O)n3)n2)cc1 (racemic) [Example 10, 4-[[6-(2-oxooxazolidin-3-yl)-2-pyridyl]amino]-2-[4-[rac-(2R)-2,4-dimethylpiperazin-1-yl]anilino]pyrimidine-5-carbonitrile] | 6.60 to 7.00 | < 6.00 |
| CCC1(O)CCc2ccc(Nc3nc(Nc4ccc(C5CCN(C)CC5)c(C)c4)ncc3C#N)nc21 (single isomer, unassigned) [Example 21] | ≥ 7.00 | ≥ 7.00 |
| CCC1(O)CCCc2ccc(Nc3nc(Nc4ccc(N5CCN(C)CC5)cc4)ncc3C#N)nc21 (stereo not shown) [Example 1, 4-[(8-ethyl-8-hydroxy-6,7-dihydro-5H-quinolin-2-yl)amino]-2-[4-(4-methylpiperazin-1-yl)anilino]pyrimidine-5-carbonitrile] | 6.60 to 7.00 | ≥ 7.00 |
| CCCC1(O)CCc2ccc(Nc3nc(Nc4ccc(N5CCN(C)CC5)cc4)ncc3C#N)nc21 (stereo not shown) [Example 2, 4-[(7-hydroxy-7-propyl-5,6-dihydrocyclopenta[b]pyridin-2-yl)amino]-2-[4-(4-methylpiperazin-1-yl)anilino]pyrimidine-5-carbonitrile] | ≥ 7.00 | ≥ 7.00 |
| CN1CCN(c2ccc(Nc3ncc(C#N)c(Nc4cccc(-n5ccccc5=O)n4)n3)cc2)CC1 [Example 3, 2-[4-(4-methylpiperazin-1-yl)anilino]-4-[[6-(2-oxo-1-pyridyl)-2-pyridyl]amino]pyrimidine-5-carbonitrile] | 6.00 to 6.30 |  |
| COC1(C)CCc2ccc(Nc3nc(Nc4ccc(N5CCN(C)CC5)cc4)ncc3C#N)nc21 (stereo not shown) [Example 4, 4-[(7-methoxy-7-methyl-5,6-dihydrocyclopenta[b]pyridin-2-yl)amino]-2-[4-(4-methylpiperazin-1-yl)anilino]pyrimidine-5-carbonitrile] | 6.30 to 6.60 | ≥ 7.00 |
| CN1CCN(c2ccc(Nc3ncc(C#N)c(Nc4cccc(N5CCCC5=O)n4)n3)cc2)CC1 [Example 5, 2-[4-(4-methylpiperazin-1-yl)anilino]-4-[[6-(2-oxopyrrolidin-1-yl)-2-pyridyl]amino]pyrimidine-5-carbonitrile] | 6.60 to 7.00 | 6.30 to 6.60 |
| CCN1CCCc2ccc(Nc3nc(Nc4ccc(N5CCN(C)CC5)cc4)ncc3C#N)nc21 [Example 6, 4-[(8-ethyl-6,7-dihydro-5H-1,8-naphthyridin-2-yl)amino]-2-[4-(4-methylpiperazin-1-yl)anilino]pyrimidine-5-carbonitrile] | 6.00 to 6.30 |  |
| CN1CCN(c2ccc(Nc3ncc(C#N)c(Nc4cccc(N5CCCC5)n4)n3)cc2)CC1 [Example 7, 2-[4-(4-methylpiperazin-1-yl)anilino]-4-[(6-pyrrolidin-1-yl-2-pyridyl)amino]pyrimidine-5-carbonitrile] | 6.60 to 7.00 | ≥ 7.00 |
| CN1CCN(c2ccc(Nc3ncc(C#N)c(Nc4ccc5c(n4)C(C)(O)CC5)n3)cc2)CC1 (stereo not shown) [Example 8, 4-[(7-hydroxy-7-methyl-5,6-dihydrocyclopenta[b]pyridin-2-yl)amino]-2-[4-(4-methylpiperazin-1-yl)anilino]pyrimidine-5-carbonitrile] | 6.60 to 7.00 | ≥ 7.00 |
| C[C@H]1CN(C)CCN1c1ccc(Nc2ncc(C#N)c(Nc3cccc(N4CCOC4=O)n3)n2)cc1 [Example 9, 4-[[6-(2-oxooxazolidin-3-yl)-2-pyridyl]amino]-2-[4-[(2S)-2,4-dimethylpiperazin-1-yl]anilino]pyrimidine-5-carbonitrile] | 6.60 to 7.00 | < 6.00 |
| Cc1cc(Nc2ncc(C#N)c(Nc3cccc(N4CCOC4=O)n3)n2)ccc1C1CCN(C)CC1 [Example 11, 2-[3-methyl-4-(1-methyl-4-piperidyl)anilino]-4-[[6-(2-oxooxazolidin-3-yl)-2-pyridyl]amino]pyrimidine-5-carbonitrile] | 6.60 to 7.00 |  |
| CN1CCc2cc(Nc3ncc(C#N)c(Nc4cccc(N5CCOC5=O)n4)n3)ccc2C1 [Example 12, 2-[(2-methyl-3,4-dihydro-1H-isoquinolin-6-yl)amino]-4-[[6-(2-oxooxazolidin-3-yl)-2-pyridyl]amino]pyrimidine-5-carbonitrile] | ≥ 7.00 | < 6.00 |
| CN1CCc2cc(Nc3ncc(C#N)c(Nc4cccc(N5CCOC5=O)n4)n3)cc(Cl)c2C1 [Example 13, 2-[(8-chloro-2-methyl-3,4-dihydro-1H-isoquinolin-6-yl)amino]-4-[[6-(2-oxooxazolidin-3-yl)-2-pyridyl]amino]pyrimidine-5-carbonitrile] | ≥ 7.00 | < 6.00 |
| CCC1(O)CCc2ccc(Nc3nc(Nc4ccc(N5CCN(C)CC5)nc4)ncc3C#N)nc21 (stereo not shown) [Example 14, 4-[(7-ethyl-7-hydroxy-5,6-dihydrocyclopenta[b]pyridin-2-yl)amino]-2-[[6-(4-methylpiperazin-1-yl)-3-pyridyl]amino]pyrimidine-5-carbonitrile] | < 6.00 | ≥ 7.00 |
| CCC1(O)CCc2ccc(Nc3nc(Nc4ccc(N5CCN(C)CC5)cc4)ncc3C#N)nc21 (stereo not shown) [Example 15, 4-[(7-ethyl-7-hydroxy-5,6-dihydrocyclopenta[b]pyridin-2-yl)amino]-2-[4-(4-methylpiperazin-1-yl)anilino]pyrimidine-5-carbonitrile] | 6.30 to 6.60 | ≥ 7.00 |
| CCC1(O)CCc2ccc(Nc3nc(Nc4ccc(N5CCN(C)CC5)c(C)c4)ncc3C#N)nc21 (stereo not shown) [Example 16, 4-[(7-ethyl-7-hydroxy-5,6-dihydrocyclopenta[b]pyridin-2-yl)amino]-2-[3-methyl-4-(4-methylpiperazin-1-yl)anilino]pyrimidine-5-carbonitrile] | 6.60 to 7.00 | ≥ 7.00 |
| CCC1(O)CCc2ccc(Nc3nc(Nc4ccc(N5CCNCC5)c(C)c4)ncc3C#N)nc21 (stereo not shown) [Example 17, 4-[(7-ethyl-7-hydroxy-5,6-dihydrocyclopenta[b]pyridin-2-yl)amino]-2-(3-methyl-4-piperazin-1-yl-anilino)pyrimidine-5-carbonitrile] | ≥ 7.00 | ≥ 7.00 |
| CCC1(O)CCc2ccc(Nc3nc(Nc4ccc(C5CCNCC5)c(C)c4)ncc3C#N)nc21 (stereo not shown) [Example 18, 4-[(7-ethyl-7-hydroxy-5,6-dihydrocyclopenta[b]pyridin-2-yl)amino]-2-[3-methyl-4-(4-piperidyl)anilino]pyrimidine-5-carbonitrile] | 6.30 to 6.60 | ≥ 7.00 |
| CCC1(O)CCc2ccc(Nc3nc(Nc4ccc(C5CCN(CCO)CC5)c(C)c4)ncc3C#N)nc21 (stereo not shown) [Example 19, 4-[(7-ethyl-7-hydroxy-5,6-dihydrocyclopenta[b]pyridin-2-yl)amino]-2-[4-[1-(2-hydroxyethyl)-4-piperidyl]-3-methyl-anilino]pyrimidine-5-carbonitrile] | 6.30 to 6.60 | ≥ 7.00 |
| CCC1(O)CCc2ccc(Nc3nc(Nc4ccc(C5CCN(C)CC5)c(C)c4)ncc3C#N)nc21 (stereo not shown) [Example 20, 4-[(7-ethyl-7-hydroxy-5,6-dihydrocyclopenta[b]pyridin-2-yl)amino]-2-[3-methyl-4-(1-methyl-4-piperidyl)anilino]pyrimidine-5-carbonitrile] | ≥ 7.00 | 6.60 to 7.00 |

Further lines, results first:

| pIC50 (Wee1) | pIC50 (PLK1) | Compound |
| --- | --- | --- |
| 6.60 to 7.00 | ≥ 7.00 | CCC1(O)CCc2ccc(Nc3nc(Nc4ccc(N5C[C@@H](C)N[C@@H](C)C5)cc4)ncc3C#N)nc21 (mixture of isomers) [Example 32, 4-[(7-ethyl-7-hydroxy-5,6-dihydrocyclopenta[b]pyridin-2-yl)amino]-2-[4-[rac-(3R,5S)-3,5-dimethylpiperazin-1-yl]anilino]pyrimidine-5-carbonitrile] |
| 6.60 to 7.00 | ≥ 7.00 | CCC1(O)CCc2ccc(Nc3nc(Nc4ccc(N5C[C@@H](C)N(C)[C@@H](C)C5)cc4)ncc3C#N)nc21 (mixture of isomers) [Example 53, 4-[(7-ethyl-7-hydroxy-5,6-dihydrocyclopenta[b]pyridin-2-yl)amino]-2-[4-[rac-(3R,5S)-3,4,5-trimethylpiperazin-1-yl]anilino]pyrimidine-5-carbonitrile] |
| 6.00 to 6.30 | 6.00 to 6.30 | C[C@H]1CN(C)CCN1c1ccc(Nc2ncc(C#N)c(Nc3ccc4c(n3)C(C)(O)CC4)n2)cc1 (mixture of isomers) [Example 60, 4-[(7-hydroxy-7-methyl-5,6-dihydrocyclopenta[b]pyridin-2-yl)amino]-2-[4-[rac-(2S)-2,4-dimethylpiperazin-1-yl]anilino]pyrimidine-5-carbonitrile] |
| 6.30 to 6.60 | 6.60 to 7.00 | CCC1(O)CCc2ccc(Nc3nc(Nc4ccc(C5CCN(C)CC5)c(C)c4)ncc3C#N)nc21 (single isomer, unassigned) [Example 22] |
| ≥ 7.00 | < 6.00 | CCC1(O)CCc2ccc(Nc3nc(Nc4ccc5c(c4)CCN(C)C5(C)C)ncc3C#N)nc21 (single isomer, unassigned) [Example 27] |
| 6.30 to 6.60 | < 6.00 | CCC1(O)CCc2ccc(Nc3nc(Nc4ccc5c(c4)CCN(C)C5(C)C)ncc3C#N)nc21 (single isomer, unassigned) [Example 28] |
| < 6.00 | < 6.00 | CCC1(O)CCc2ccc(Nc3nc(Nc4ccc(N5C6CCC5CN(C)C6)cc4)ncc3C#N)nc21 (single isomer, unassigned) [Example 37] |
| 6.30 to 6.60 | 6.30 to 6.60 | CCC1(O)CCc2ccc(Nc3nc(Nc4ccc(N5C6CCC5CN(C)C6)cc4)ncc3C#N)nc21 (single isomer, unassigned) [Example 38] |
| 6.00 to 6.30 | ≥ 7.00 | CCC1(O)CCc2ccc(Nc3nc(Nc4ccc(N5CCN(C6CC6)CC5)cc4)ncc3C#N)nc21 (stereo not shown) [Example 23, 2-[4-(4-cyclopropylpiperazin-1-yl)anilino]-4-[(7-ethyl-7-hydroxy-5,6-dihydrocyclopenta[b]pyridin-2-yl)amino]pyrimidine-5-carbonitrile] |
| 6.00 to 6.30 |  | Cc1cc(Nc2ncc(C#N)c(Nc3cccc(N4CCCC4=O)n3)n2)cc2c1CNCC2 [Example 77, 2-[(8-methyl-1,2,3,4-tetrahydroisoquinolin-6-yl)amino]-4-[[6-(2-oxopyrrolidin-1-yl)-2-pyridyl]amino]pyrimidine-5-carbonitrile] |
